Columns and labels:
C. neoformans [1] = assay: broth microdilution antifungal susceptibility / drug combination testing in vitro (NCCLS protocol M27-T); format: cell-based; settings: for activity against strains of C. neoformans in vitro: sub-inhibitory concentrations
Text: (§1) This has been shown using a broth microdilution technique which is the standard method for antifungal susceptibility testing proposed by the NCCLS (protocol M27-T). Sub-inhibitory concentrations of Compound I in combination with sub-inhibitory concentrations of AmB and sub-inhibitory concentrations of FCZ were employed. The minimal inhibitory concentrations (MICs) for AmB and Compound I were defined as the lowest drug concentration at which there was an absence of growth.
(§2) Additional drug combination testing in vitro was performed to evaluate combinations of Compound I with AmB and FCZ against clinical isolates. There was no antagonism evident between Compound I and AmB against C. albicans, A. fumigatus and C. neoformans. Fractional inhibitory indices (FIC) were approximately 0.50 or lower, indicative of additive or synergistic activity.

A. fumigatus [2] = assay: as above; format: cell-based
Text: as §1, §2

C. albicans [3] = assay: as above; format: cell-based
Text: as §1, §2

C. neoformans [4] = assay: drug interaction and efficacy study, disseminated cryptococcosis; format: in vivo; settings: combinations of Compound I and FCZ at certain concentrations
Procedure: (§3) Drug interaction and efficacy studies with Compound I combined with either AmB or FCZ against disseminated candidiasis, aspergillosis and cryptococcosis were performed.

C. albicans [5] = assay: drug interaction and efficacy study, disseminated candidiasis; format: in vivo; settings: Compound I 0.03 mg/kg and lower plus 0.03 mg/kg and lower of AmB
Procedure: as §3

A. fumigatus [6] = assay: drug interaction and efficacy study, disseminated aspergillosis; format: in vivo; settings: Compound I at 0.008 mg/kg combined with AmB at 0.12 mg/kg, versus the compounds administered alone
Procedure: as §3

[7] = system: disseminated candidiasis, aspergillosis and cryptococcosis; assay: drug interaction and efficacy studies in vivo, overall statements; settings: for adverse effects: at high, use or lower concentrations
Procedure: as §3

[8] = Compound I in combination with AmB

## CCC(C)CC(C)CCCCCCCCC(=O)N[C@H]1C[C@@H](O)[C@@H](NCCN)NC(=O)[C@@H]2[C@@H](O)CCN2C(=O)[C@H]([C@H](O)CCN)NC(=O)[C@H]([C@H](O)[C@@H](O)c2ccc(O)cc2)NC(=O)[C@@H]2C[C@@H](O)CN2C(=O)[C@H]([C@@H](C)O)NC1=O (stereo partly shown) [Compound I]
C. neoformans [1]; Compound I combined with fluconazole 0.25, 0.50 and 1.0 µg/ml, organism not printed
  activity of fluconazole, CFU numbers: significantly enhanced the activity of fluconazole
C. neoformans [1]; [8]
  activity against strains of C. neoformans in vitro: enhanced activity
C. neoformans [1]; Compound I in combination with FCZ
  activity against strains of C. neoformans in vitro: enhanced activity
C. neoformans [1]; amphotericin B 0.0075, 0.015 and 0.03 µg/ml combined with Compound I 4, 8 and 16 µg/ml, organism not printed
  colony forming units (CFUs): markedly reduced
C. neoformans [1]; in vitro, clinical isolates, C. neoformans
  antagonism between Compound I and AmB: no antagonism
A. fumigatus [2]; [8]
  activity in vitro: enhanced activity
A. fumigatus [2]; in vitro, clinical isolates
  antagonism between Compound I and AmB: no antagonism
C. albicans [3]; [8]
  activity in vitro: enhanced activity
C. albicans [3]; in vitro, clinical isolates
  antagonism between Compound I and AmB: no antagonism
C. neoformans [4]
  efficacy against C. neoformans: Beneficial effects on efficacy
C. albicans [5]
  efficacy against C. albicans: more efficacious than either agent administered alone
A. fumigatus [6]
  survival: Significant improvement in survival
[7]; AmB combined with Compound I
  antagonism of efficacy: no antagonism of efficacy
[7]; Compound I combined with AmB
  adverse effects: no adverse effects
[7]; Compound I combined with FCZ
  adverse effects: no adverse effects
[7]; FCZ combined with Compound I
  antagonism of efficacy: no antagonism of efficacy

Reference: patent EP0925070B1, “ANTIFUNGAL COMBINATION THERAPY” (MERCK & CO., INC., priority 1996, dated 1998)
